# Results: US20240024403A1, “Compositions and Methods for Managing Weight” (Unigen, Inc., priority 2012, published 2024)
# Where “and” joins values, the source holds several entries; their conditions need not be identical. Equal values may be shown once. Entries after “also recorded” stand apart in the source; their conditions may differ.
# Tests used:
# [1] = High fat diet induced obesity (DIO) rat model; assay type: in vivo, Spraue-Dawley rats; set-up: NASH (sum) / NSAH (sum): scale not given here; Epididymal fatty tissue weight / Retroperitoneal fatty tissue weight / Total Fat / Epididymal Fat, absolute weight / Retroperitoneal Fat, absolute weight: unit not given here
# Experimental: Male Spraue-Dawley rats, age 4-6 weeks (OrientBio, Inc.; Seongnam, Korea) were housed individually in Polycarbonate cages in a room with a 12 hr:12 hr light-dark cycle and an ambient temperature of 24° C. All the rats were fed a commercial chow diet for 1 week after arrival in the animal facility. Rats were then divided into normal and obesity groups and fed with normal diet (ND) and high fat diets (HFD) respectively. The HFD group was divided into multiple treatment groups: a high fat diet vehicle group (HFD), an orlistat (purchased as OTC drug Alli®) positive control treatment group (ORI, 80 mg/kg of animal weight, 2 times/day). In some examples, sibutramine was used as a positive control (SIB, 3 mg/kg for rat studies and […] for mice studies).
# Body weight was measured once or twice per week and feed intake was measured twice per week. Body weight gain was determined for each study group by measurement of the body weight difference for each study group between each successive week of the study. At the end of the experimental period, following a 12-h fasting period, the animals were anesthetized with ether, and blood was drawn from the abdominal vein. Liver and kidney and adipose tissues (epididymal, retroperitoneal, perirenal adipose tissues) were removed from each animal, rinsed with physiological saline, and weighted. Serum concentrations of glucose, total cholesterol and LDL-cholesterol were determined using automatic analyzer (INTEGRA 400, Roche, Germany). Statistical significance of test results was performed by Student's t-test.
# [2] = test system: leptin; assay: Plasma leptin level in DIO mice (ELISA); assay type: in vivo
# Experimental: (§1) Obese mice were treated with various three component compositions to test the anti-obesity and appetite effects of such compositions. Three component Composition 1 (Magnolia:Morus:Yerba Mate) produced according to the Example 38, three component Composition 2 (Magnolia:Morus:Mutamba) produced according to the Example 42, three component Composition 3 (Morus: Rosemary:Yerba Mate) produced according to the Example 39, and three component Composition 9 (Morus:Rosemary:Areca) produced according to the Example 41, were each separately administrated orally to DIO mice as described in the Example 48. The high fat diet (HFD) mice were divided into multiple treatment groups with a total of 10 animals per group. The mice were treated with one of the following: Composition 1 (1300 mg/kg/day), Composition 2 (1300 mg/kg/day), Composition 3 (1700 mg/kg/day), or Composition 9 (1700 mg/kg/day). Control groups included a normal diet group given vehicle only (ND, negative control), a high fat diet group given vehicle only (HFD, negative control), an orlistat group (ORI, 40 mg/kg, 2 times/day, positive control), and a sibutramine group (10 mg/kg, 1 time/day, positive control). Body weight and feed intake were measured daily for 2 weeks after treatment and then twice a week until the end of the 7 week study. At week 2 and week 7 after treatment, mice were fasted for 16 hours and then five animals were examined to measure plasma concentrations of leptin and ghrelin. Leptin and ghrelin levels were measured by using commercial ELISA kits specific for leptin or ghrelin (Millipore Co., Billerica, MA) according to the manufacturer's instructions. Measurements were taken using a microplate reader (Victor™ X3, PerkinElmer Inc., USA) and analyzed with PerkinElmer 2030 workstation computer software.
# [3] = test system: ghrelin; assay: Plasma active ghrelin level in DIO mice (ELISA); assay type: in vivo
# Experimental: as §1
# [4] = test system: CCK peptide; assay: CCK peptide levels in DIO mice (CCK ELISA); assay type: in vivo; settings: mice on high fat diet; after 7 weeks of administering; % ± SD
# Experimental: Therefore, the effect on CCK peptide levels in mice from treatment with Composition 2 (Magnolia:Morus:Mutamba), produced according to the Example 42, or Composition 3 (Morus:Rosemary:Yerba Mate), produced according to the Example 39, was examined to determine the extent to which weight gain and/or appetite were affected through this peptide hormone pathway. Briefly, CCK peptide levels were measured after 7 weeks of administering Compositions […] and 3 to mice on a high fat diet as described in Example 48. Negative controls include mice on a normal diet (NC) and mice on a high fat diet (HFD), each group administered vehicle only. The positive controls were orlistat and sibutrimine. CCK levels were detected using a CCK ELISA assay kit according to the manufacturer's instructions (Abnova, Taipei City, Tiawan). Measurements were performed using microplate reader Victor™ X3 (PerkinElmer Inc., Waltham, MA) and computer software on the PerkinElmer 2030 workstation.
# [5] = DIO rats, ORI 80 mg/kg, 55 day study, mean
# [6] = DIO rats, blood at end of study, ORI 80 mg/kg, mean
# [7] = DIO rats, liver pathology, ORI 80 mg/kg, mean
# [8] = DIO rats, liver pathology score, ORI group, mean
# [9] = DIO mice plasma, 2-week treatment
# [10] = DIO mice plasma, 7-week treatment
smiles,measurement,setting,value
"CCCCCCCCCCC[C@@H](C[C@@H]1OC(=O)[C@H]1CCCCCC)OC(=O)[C@H](CC(C)C)NC=O [ORI, orlistat]",Body Weight Gain,[1]; [5],1.22 g/day
same,Food Intake,[1]; [5],25.71 g/day
same,Food Efficiency Ratio (FER),"[1]; DIO rats, ORI 80 mg/kg, 55 day study, body weight gain/food intake",0.05
same,Weight Gain,"[1]; DIO rats, ORI 80 mg/kg, day 3, mean",2.80
same,Weight Gain,"[1]; DIO rats, ORI 80 mg/kg, day 7, mean",1.04
same,Weight Gain,"[1]; DIO rats, ORI 80 mg/kg, day 10, mean",0.82
same,Weight Gain,"[1]; DIO rats, ORI 80 mg/kg, day 14, mean",3.40
same,Weight Gain,"[1]; DIO rats, ORI 80 mg/kg, day 17, mean",3.34
same,Weight Gain,"[1]; DIO rats, ORI 80 mg/kg, day 21, mean",15.89
same,Weight Gain,"[1]; DIO rats, ORI 80 mg/kg, day 24, mean",19.89
same,Weight Gain,"[1]; DIO rats, ORI 80 mg/kg, day 28, mean",28.19
same,Weight Gain,"[1]; DIO rats, ORI 80 mg/kg, day 31, mean",33.33
same,Weight Gain,"[1]; DIO rats, ORI 80 mg/kg, day 35, mean",38.43
same,Weight Gain,"[1]; DIO rats, ORI 80 mg/kg, day 37, mean",43.95
same,Weight Gain,"[1]; DIO rats, ORI 80 mg/kg, day 42, mean",49.06
same,Weight Gain,"[1]; DIO rats, ORI 80 mg/kg, day 45, mean",59.88
same,Weight Gain,"[1]; DIO rats, ORI 80 mg/kg, day 49, mean",63.68
same,Weight Gain,"[1]; DIO rats, ORI 80 mg/kg, day 52, mean",71.12
same,Weight Gain,"[1]; DIO rats, ORI 80 mg/kg, day 55, mean",68.11
same,Epididymal fatty tissue weight,"[1]; DIO rats, ORI 80 mg/kg, mean",17.87
same,Perirenal fatty tissue weight,"[1]; DIO rats, ORI 80 mg/kg, mean",6.11
same,Retroperitoneal fatty tissue weight,"[1]; DIO rats, ORI 80 mg/kg, mean",19.21
same,Total Fat,"[1]; DIO rats, ORI 80 mg/kg, sum of epididymal, retroperitoneal and perirenal fat",43.19
same,ALP,[1]; [6],480.16 U/L
same,ALT,[1]; [6],35.65 U/L
same,AST,[1]; [6],146.39 U/L
same,LDL-C,[1]; [6],10.63 mg/dL
same,T-chol,[1]; [6],110.13 mg/dL
same,TG,[1]; [6],216.38 mg/dL
same,Hepatocellular ballooning (0-2),[1]; [7],0.675 and 0.625
same,Lobular Inflammation (0-3),[1]; [7],1.500
same,NASH (sum),[1]; [7],2.875
same,Steatosis (0-3),[1]; [7],0.750
same,"Epididymal Fat, absolute weight","[1]; DIO rats, ORI group, mean",17.87
same,FER (Food efficiency ratio),"[1]; DIO rats, ORI group, mean",0.05
same,Food Intake,"[1]; DIO rats, ORI group, mean",25.71 g/day
same,LDL-C,"[1]; DIO rats, ORI group, mean",10.63 mg/dL
same,"Perirenal Fat, absolute weight","[1]; DIO rats, ORI group, mean",6.11
same,"Retroperitoneal Fat, absolute weight","[1]; DIO rats, ORI group, mean",19.21
same,T-chol,"[1]; DIO rats, ORI group, mean",110.13 mg/dL
same,TG,"[1]; DIO rats, ORI group, mean",216.38 mg/dL
same,Total Fat,"[1]; DIO rats, ORI group, mean",43.19
same,Weight Gain,"[1]; DIO rats, ORI group, mean",1.22 g/day
same,Weight Gain,"[1]; DIO rats, day 3, ORI group, mean",2.80
same,Weight Gain,"[1]; DIO rats, day 7, ORI group, mean",1.04
same,Weight Gain,"[1]; DIO rats, day 10, ORI group, mean",0.82
same,Weight Gain,"[1]; DIO rats, day 14, ORI group, mean",3.40
same,Weight Gain,"[1]; DIO rats, day 17, ORI group, mean",3.34
same,Weight Gain,"[1]; DIO rats, day 21, ORI group, mean",15.89
same,Weight Gain,"[1]; DIO rats, day 24, ORI group, mean",19.89
same,Weight Gain,"[1]; DIO rats, day 28, ORI group, mean",28.19
same,Weight Gain,"[1]; DIO rats, day 31, ORI group, mean",33.33
same,Weight Gain,"[1]; DIO rats, day 35, ORI group, mean",38.43
same,Weight Gain,"[1]; DIO rats, day 37, ORI group, mean",43.95
same,Weight Gain,"[1]; DIO rats, day 42, ORI group, mean",49.06
same,Weight Gain,"[1]; DIO rats, day 45, ORI group, mean",59.88
same,Weight Gain,"[1]; DIO rats, day 49, ORI group, mean",63.68
same,Weight Gain,"[1]; DIO rats, day 52, ORI group, mean",71.12
same,Weight Gain,"[1]; DIO rats, day 55, ORI group, mean",68.11
same,Hepatocellular ballooning (0-2),[1]; [8],0.625
same,Lobular Inflammation (0-3),[1]; [8],1.500
same,NSAH (sum),[1]; [8],2.875
same,Steatosis (0-3),[1]; [8],0.750
same,blood biochemistry parameters vs HFD group,"[1]; orlistat 80 mg/kg, 2 times/day",no statistically significant decreases in any of the measured blood components; also recorded: did not show any statistically significant decreases in any of the measured blood chemistry components
same,body weight gain vs HFD group,"[1]; orlistat 80 mg/kg, 2 times/day",statistically significant decreases in body weight gain on day 7 through to day 55
same,liver pathology (NASH score) vs HFD group,"[1]; orlistat 80 mg/kg, 2 times/day","statistically significant decreases in Steatosis, Lobular Inflammation, Hepatocellular ballooning and NASH score"
same,organ and fat pad weights vs HFD group,"[1]; orlistat 80 mg/kg, 2 times/day","statistically significant decreases in all categories of fat measurement; also recorded: statistically significant decreases in Epididymal Fat, Retroperitoneal Fat, Perirenal Fat and Total Fat"
same,"weight gain per day, food intake per day, food efficiency ratio (FER) vs HFD group","[1]; orlistat 80 mg/kg, 2 times/day","statistically lower values than the HFD group for average Body Weight Gain per day, average Food Intake per day and Food Efficiency Ratio"
same,Leptin (ng/ml) 2-week,[2]; [9],11.6 ± 0.06 ng/mL
same,Leptin (ng/ml) 7-week,[2]; [10],19.0 ± 0.24 ng/mL
same,plasma leptin level vs HFD group,"[2]; week 2 and week 7, Composition 2 1300 mg/kg/day, orlistat 40 mg/kg 2 times/day, sibutramine 10 mg/kg 1 time/day",significantly reduced leptin level after 2 weeks of treatment
same,Active Ghrelin (pg/ml) 2-week,[3]; [9],1316.4 pg/mL
same,Active Ghrelin (pg/ml) 7-week,[3]; [10],1353.7 pg/mL
same,active ghrelin level vs HFD group,"[3]; week 2 and week 7, orlistat 40 mg/kg 2 times/day, sibutramine 10 mg/kg 1 time/day",no effect on active ghrelin levels at either week 2 or week 7
same,% CCK binding,[4],72.5 ± 3.4%
